The test system of data set [1] is Dunkin Hartley guinea pigs, ATP-citric acid induced cough. Description: ATP-citric acid cough model. The data set is classed as in vivo, guinea pig. The procedure: Male Dunkin Hartley guinea pigs (300-400 g) were placed in a whole-body volume scanning box for 3 to 5 minutes, and then subjected to ATP atomization for 2 minutes, with an interval of 3 minutes, followed by citric acid atomization for 5 minutes, and all atomization rates were about 300 μL/min. From citrate acid atomization, cough times and cough latency of animals within 10 min were recorded. During the 10-minute observation period, manual counting of coughs was required, and the number of coughs was judged according to the guinea pig's coughing posture, such as abdominal twitching, mouth opening, head down hooking, etc., as well as the sound of coughing, the number of coughs in the first 10 minutes were recorded, and the cough incubation period of guinea pigs was also recorded.
Animals were divided into vehicle group, dextromethorphan (63 mg/kg) positive group, AF-219 (30 mg/kg) positive group and compound 172 (3, 10, 30 mg/kg) administration group of Embodiment. All compounds were administered orally, except dextromethorphan, which was administered 40 minutes before ATP-citric acid exposure, and the rest compounds were […].

Data set [2] deals with Dunkin Hartley guinea pigs, citric acid induced cough. Description: Simple citric acid cough model. The data set is classed as in vivo, guinea pig. The settings on record: 30 mg/kg. The method, then: Male Dunkin Hartley guinea pigs (300-350 g) were placed in the animal atomization box, the door of the atomization box was closed, and the ultrasonic atomizer (Guangdong Yuehua) was opened at the same time, at the maximum atomization amount (about 2 mL/min) 17.5% citric acid gas was filled with the atomization box, which was continuously atomized for 20 seconds, and the cough performance of the animals was continuously observed within 10 min after the atomization started. During the 10-minute observation period, manual counting of coughs was required, and the number of coughs was judged according to the guinea pig's coughing posture, such as abdominal twitching, mouth opening, head down hooking, etc., as well as the sound of coughing, the number of coughs in the first 5 minutes and the number of coughs in the first 10 minutes were recorded, and the cough incubation period of guinea pigs was also recorded, that is, the time from citric acid induction to the first cough as well as the sound of coughing.

Another data set deals with SD rats. Description: Taste disorder test by double bottle method. The data set is classed as in vivo, rat. The settings on record: for Quinine/tap water * 100%: single intraperitoneal injection, 15 minutes. The text has this: SPF male SD rats (6-8 weeks) received 3 days of adaptive drinking water training immediately after storage, and the specific training content was that animals were kept in a single cage, and two bottles of water (both common drinking water) were placed in each cage, and during the adaptive training, water treatment was forbidden all night (the drinking water bottle was removed), and drinking water was given again at 8:30 am to 5:30 pm, and then this cycle lasted for 3 days, and the two bottles of water were changed every day, and during the whole adaptive training period, animals were ate freely. All animal water bottles were removed 20 hours before the formal experiment, and water was banned until the time of the experiment. During the formal experiment, all animals were randomly divided into groups, and the test compound or vehicle was given before the water supply was renewed, and the drug was given by single intraperitoneal injection, and the administration time was determined according to the Tmax of the test compound. Then, the animals were placed in a single cage, and given two bottles of drinking water, one bottle of ordinary drinking water and one bottle of 0.3 mM tonic water, and the water consumption of animals was observed within 15 minutes, and the quinine water consumption/ordinary water consumption was statistically analyzed, with positive compound 2 as the positive control of taste disorder.

Data set [3] deals with T1, hP2X2/3 (heterodimeric receptors formed by human purinergic P2X receptor subtypes 2 and 3) (Homo sapiens, UniProt P56373+Q9UBL9).
T1 construct: expressed in transfected cells
T1 sequence (P56373 1-397): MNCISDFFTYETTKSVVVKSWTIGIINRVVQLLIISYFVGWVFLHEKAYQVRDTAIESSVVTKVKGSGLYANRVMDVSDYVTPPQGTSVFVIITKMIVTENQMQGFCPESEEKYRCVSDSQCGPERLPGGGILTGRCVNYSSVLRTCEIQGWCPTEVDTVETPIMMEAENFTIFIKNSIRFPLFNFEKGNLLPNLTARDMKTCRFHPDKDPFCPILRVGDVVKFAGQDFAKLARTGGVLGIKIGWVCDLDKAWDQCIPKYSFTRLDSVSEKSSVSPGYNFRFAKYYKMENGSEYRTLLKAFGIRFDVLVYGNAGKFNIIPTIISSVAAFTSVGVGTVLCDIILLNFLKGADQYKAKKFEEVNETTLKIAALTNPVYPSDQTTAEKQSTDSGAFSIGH
T1 sequence (Q9UBL9 1-471): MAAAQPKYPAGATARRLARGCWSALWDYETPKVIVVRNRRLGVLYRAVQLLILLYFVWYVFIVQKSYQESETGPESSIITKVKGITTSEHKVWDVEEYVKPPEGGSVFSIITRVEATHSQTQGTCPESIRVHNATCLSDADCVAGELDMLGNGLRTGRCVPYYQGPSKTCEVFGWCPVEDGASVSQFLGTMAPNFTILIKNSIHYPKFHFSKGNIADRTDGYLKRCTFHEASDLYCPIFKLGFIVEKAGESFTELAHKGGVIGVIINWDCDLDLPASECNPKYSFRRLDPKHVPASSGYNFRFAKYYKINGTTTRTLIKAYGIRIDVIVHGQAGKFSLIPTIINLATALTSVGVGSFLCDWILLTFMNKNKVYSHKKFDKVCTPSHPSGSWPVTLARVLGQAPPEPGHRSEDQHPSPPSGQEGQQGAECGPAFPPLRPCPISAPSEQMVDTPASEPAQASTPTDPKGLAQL
The data set is described as follows: FLIPR intracellular calcium assay, hP2X2/3 in HEK293 cells (selectivity). It is filed as cell-based. The method, then:
18-24 hours before the FLIPR experiment, cells were seeded into 96 wells (25000 cells/well) ata density of 250000 cells/mL and incubated overnight in a cell culture incubator. […] 75 μL 1 mM Fluo-4 AM fluorescent dye (Thermo, F14202) was added to each well, and the dye load was incubated for 1.0 hour at 37° C. Then, the 96-well plate was washed once with buffer, and 50 μL of buffer containing test compound or vehicle was added to each well, and it was incubated at room temperature for 30 minutes. […] Then agonist (BZ-ATP (Sigma, B6396) at a final concentration of 5 μM) or vehicle (ultrapure water) was added at 50 μL/well, the fluorescence value was measured at 1-second intervals for 2 minutes, and finally the output fluorescence was counted analysis.

Data set [4] concerns the target T2, hP2X3 (human purinergic P2X receptor subtype 3) (Homo sapiens, UniProt P56373).
T2 construct: expressed in transfected cells
T2 sequence (P56373 1-397): T1 sequence (P56373 1-397)
Description: FLIPR intracellular calcium assay, hP2X3 in HEK293 cells. It is filed as cell-based. The following applies: agonist BZ-ATP 2.5 μM, read-out: P2X3 IC50. The method, then:
18-24 hours before the FLIPR experiment, cells were seeded into 384 wells (10,000 cells/well) at a density of 400,000 cells/mL and incubated overnight in a cell culture incubator. […] 10 μL of test compound (dissolved at 10 mM in DMSO and serially diluted with buffer) or vehicle was then added to each well and allowed to equilibrate for 30 min at room temperature.

One may read the IC50 as the point on the concentration scale where inhibition reaches its midpoint.

Consider `COC(=O)N1CCO[C@@H](Cc2c(-c3c(F)cc(S(N)(=O)=O)cc3F)nc3cc(Cl)ccn23)C1` [Compound 172, methyl (S)-2-((7-chloro-2-(2,6-difluoro-4-sulfamoylphenyl)imidazo[1,2-a]pyridin-3-yl)methyl)morpholine-4-carboxylate], for which the entries for the “Cough suppression rate vs Vehicle” value in data set [1] (3 mg/kg oral), in data set [1] (10 mg/kg oral) and in data set [1] (30 mg/kg oral) were 30.80%, 51.20% and 52.80%, respectively. Moreover, the “effect on number of coughs compared with the vehicle group, in words” value in data set [1] (guinea pig, in vivo) is “significantly reduce the number of coughs”. Also, the efficacy in words result in data set [2] is recorded as “comparable to the efficacy of positive compound”. Moreover, the results for the “Quinine/tap water * 100%” value in the data set on SD rats (5 mg/kg), in the data set with SD rats (10 mg/kg) and in the data set with SD rats (20 mg/kg) were 7.05%, 7.41% and 8.66%, respectively. Besides, the “effect on quinine/water ratio in words” value in the data set with SD rats (5, 10 and 20 mg/kg) was “no obvious effect on the quinine/water ratio of rats”. For the same molecule, the IC50 is above 60000 nM in data set [3] (HEK293 cells, agonist BZ-ATP 5 μM) and 0.7 nM in data set [4]. For the same molecule, the Selectivity multiple in data set [3] (P2X2/3 versus P2X3) was above 85714.
